Like-named read-outs stand apart in the source and are kept apart here.
Columns and labels:
HSV-1 [1] = assay: HSV-1 titer (yield) reduction assay; assay type: cell-based, herpes simplex virus type 1 in KB cells; details: read-out: HSV-1 Yield, 90% inhibitory concentration (I90)
Description: (§1) The 148 strain of HSV-1 was used in most experiments and was provided by Dr. T. W. Schafer of Schering corporation. The HF strain of HSV-1 was used in selected experiments and was obtained from Dr. G. H. Cohen, University of Pennsylvania. The Towne strain, plaque-purified isolate Po, of HCMV was a gift of Dr. Mark Stinski, University of Iowa.
(§2) HSV-1 was titered using monolayer cultures of BSC-1 cells. Cells were planted at 3×10^5 cells/well using 6-well cluster dishes. MEM(E) supplemented with 10% fetal bovine serum was employed as medium. After 22-24 hours, cells were 90% confluent and were inoculated in triplicate using at least three ten-fold dilutions with 0.2 ml of the virus suspension to be assayed and incubated in a humidified 4% CO2 […] atmosphere for one hour to permit viral adsorption. Following virus adsorption, the cell sheet was overlayed with 5 ml of MEM(E) with 5% serum plus 0.5% methocel (4000 CPS) and incubated an additional two to three days. Cells were fixed and stained with 0.1% crystal violet in 20% methanol and macroscopic plaques enumerated.
(§3) Plaque reduction experiments were HSV-1 were performed using monolayer cultures of BSC-1 cells. The assay was performed exactly as described above except that the 0.2 ml virus suspension contained approximately 100 p.f.u. of HSV-1. Compounds to be tested were dissolved in the overlay medium at concentrations usually ranging from 0.1 to 100 μM in half-or-one logarithm10 dilutions. Titer reduction assays were performed by planting KB cells in 25 cm^2 plastic tissue culture flasks 10 to 24 hours prior to infection. At the onset of experiments, logarithmically growing replicate monolayer cultures were 60 to 80% confluent and contained 2.5 to 4.5×10^6 cells/flask. Medium was decanted and the cultures were infected with 2 to 10 p.f.u. of HSV-1 per cell. Virus was contained in 1.0 ml of VGM supplemented with 5% fetal bovine serum. After a 1 hour adsorption period at […], the cell sheet was rinsed twice with 2 ml of VGM without serum to remove unadsorbed virus and 5 ml of VGM containing drugs at three to five selected concentrations added in duplicate. Following an 18- to 22-hour incubation at 37° C., infected monolayers were treated with EDTA-trypsin to suspend the cells; aliquots were removed, subjected to three cycles of freezing and thawing, and stored at -76° C. for subsequent virus assay. Virus was titered on BSC-1 cells as described above.
Drug effects were calculated as a percentage of the reduction in virus titers in the presence of each drug concentration compared to the titer obtained in the absence of drug. Acylovir was used as a positive control in all experiments.
(§4) Dose-response relationships were used to compare drug effects. These were constructed by linearly regressing the percent inhibition of parameters derived in the preceding sections against log drug concentrations. The 50% inhibitory (I50) concentrations were calculated from the regression lines using the methods described by Goldstein. See Goldstein, A., Biostatistics: An Introductory Text, MacMillan, N.Y., 1964, pp. 156-161. Along with the I50 concentration for visual cytotoxicity, the averaged I50 concentrations are compared to I50 concentrations for inhibition for HCMV or HSV-1 replication. Compounds for which the ratio of cytotoxicity I50 concentrations to antiviral I50 concentrations (in vitro therapeutic index) were greater than 10, were considered for further study.

HCMV [2] = assay: HCMV titer (yield) reduction assay; assay type: cell-based; details: Human betaherpesvirus 5; for IC90: Table 1, I90, HFF cells, read-out: HCMV Yield, 90% inhibitory concentration (I90)
Description: as §1
(§5) HCMV was titered in 24-well cluster dishes which were planted to contain 5×10^4 cells/well, grown as described above. When the cells were 70 to 80% confluent, 0.2 ml of the virus suspension was added per wall and adsorbed as described above. At least three ten-fold dilutions of each preparation were used. Following virus adsorption, the cell sheets were overlayed with 0.5% methocel (4000 CPS) in maintenance medium [MEM(E) with 1.1 gm/liter NaHCO3, 100 units/ml penicillin G, 100 μg/ml streptomycin, and 5% fetal bovine serum]. The cultures were incubated in a humidified atmosphere of 4% CO2 -96% air. Viral foci were visible 5 to 7 days after infection using at least 10-fold magnification. Cells were fixed and stained by a 10-minute exposure to a 0.1% solution of crystal violet in 20% methanol 7 to 12 days after infection. Microscopic foci were enumerated at 20-fold magnification using a Nikon Profile Projector.
For titer reduction analysis, HFF cells were planted as described above in 24-well cluster dishes or in 25 cm^2 flasks. When monolayers were approximately 70% confluent, HCMV was added at a m.o.i. of 0.5 p.f.u. per cell and adsorbed as detailed above. Compounds dissolved in growth medium were added in one or one-half logarithm10 dilutions and incubation continued at 37° C. After 7 to 10 days of incubation, culture dishes or flasks were frozen at […] For titer determination, cells were thawed and then subjected to two more cycles of freezing and thawing at 37° C. Serial, one-logarithm10 dilutions of the final suspension were prepared and inoculated onto new cultures of HFF cells. Titer determination was as detailed above in part (1) (b).
as §4

HCMV [3] = assay: HCMV plaque (focus) reduction assay; assay type: cell-based; details: Human betaherpesvirus 5; Table 1; HFF cells; read-out: 50% Inhibitory Concentration HCMV Plaque
Description: as §1, §5
The effect of compounds of the replication of HCMV has been measured using both a plaque (focus) reduction assay and a titer (yield) reduction assay. For the former, HFF cells in 24-well culture dishes were infected with approximately 50 p.f.u. of HCMV per well using the procedures detailed above. Compounds dissolved in growth medium were added in three to six selected concentrations to triplicate wells following virus adsorption. Following incubation at 37° C. for 7 to 10 days, cell sheets were fixed, stained and microscopic foci were enumerated as described above. Drug effects were calculated as a percentage of reduction in number of foci in the presence of each drug concentration compared to the number observed in the absence of drug. DHPG (ganciclovir) was used as a positive control in all experiments.
as §4

HSV-1 [4] = assay: HSV-1 plaque reduction assay, strain S148; assay type: cell-based, herpes simplex virus type 1 (strain S148) in BSC-1 cells; details: for IC50: Human alphaherpesvirus 1, Table 1, strain S148, BSC-1 cells, read-out: 50% Inhibitory Concentration HSV-1 Plaque
Description: as §1, §2, §3, §4

[5] = Visual cytotoxicity scoring in HFF cells; assay type: cell-based; details: human, Table 1, at time of HCMV plaque enumeration, read-out: 50% Inhibitory Concentration Cytotoxicity HFF (visual)
Description: Cytotoxicity produced in HFF and BSC-1 cells was estimated by visual scoring of cells not affected by virus infection in the HCMV and HSV-1 plaque reduction assays. Cytopathology was estimated at 35- and 60-fold magnification and scored on a zero to four plus basis. Wells were scored on the day of staining.
as §4

[6] = Human alphaherpesvirus 1, Table 1, I90, strain S148, KB cells

Row | Compound | IC90 (HSV-1 [1]; [6]) [µM] | log reduction at 10 µM (HCMV [2]; FIG. 2, 10 μM) | IC90 (HCMV [2]) [µM] | IC50 (HCMV [3]) [µM] | IC50 (HSV-1 [4]) [µM] | CC50 [5] [µM] | log reduction at 100 µM (HCMV [2]; FIG. 2, 10-fold higher concentration than UMJD 183 (10 μM)) | activity against HSV-1 (in words) (HSV-1 [4]) | IC90 (HSV-1 [1]; Human alphaherpesvirus 1, KB) [µM]
1 | Nc1ncnc2c1c(Br)cn2COC(CO)CO [UMJD 183, 4-amino-5-bromo-7-[(1,3-dihydroxy-2-propoxy)methyl]-pyrrolo[2,3-d]pyrimidine] | 17 | ~5 | 1.9 | 1.6 | 2 | > 100 |  |  | 
2 | OCC(CO)OCn1cc(Br)c2c(NO)ncnc21 [UMJD 299, 4-hydroxylamino-5-bromo-7-[(1,3-dihydroxy-2-propoxy)methyl]pyrrolo[2,3-d]pyrimidine] | > 100 |  | 10 | 1.2 | 2.9 | > 100 |  |  | 
3 | Nc1ncnc2c1c(Cl)cn2COC(CO)CO [UMJD 186, 4-amino-5-chloro-7-[(1,3-dihydroxy-2-propoxy)-methyl]pyrrolo[2,3-d]pyrimidine] | 3.5 |  | 8 | 9.8 | 16 | > 100 | 5 |  | 
4 | Nc1ncnc2c1c(Br)cn2COCCO [UMJD 102, 4-Amino-5-bromo-7-(2-hydroxyethoxymethyl)pyrrolo[2,3-d]-pyrimidine] | 30 |  | 13 | 3.5 | 11 | 100 |  | less potent activity | 
5 | Nc1nc2c(ncn2COCCO)c(=O)[nH]1 [Acyclovir, reference compound] | 7 |  | 90 | 63 | 4 | > 100 |  |  | 
6 | Nc1ncnc2c1c(Cl)cn2COCCO [UMJD 100, 4-Amino-5-chloro-7-(2-hydroxyethoxymethyl)pyrrolo[2,3-d]-pyrimidine] | 50 |  | 46 | 22 | 77 | > 100 |  | less potent activity | 
7 | Nc1ncnc2c1c(I)cn2COCCO [UMJD 104, 4-Amino-5-iodo-7-(2-hydroxyethoxymethyl)pyrrolo[2,3-d]-pyrimidine] | > 100 |  | 14 | 24 | 250 | 100 |  | less potent activity | 
8 | Nc1nc(O)c2ncn(COC(CO)CO)c2n1 [Ganciclovir (DHPG), reference compound] |  |  | 1.8 | 8.7 | 4.5 | > 100 |  |  | 1.2

Source: patent US4968686A, “Acyclic pyrrolo [2,3-d]pyrimidine analogs as antiviral agents” (The Regents of The University of Michigan, priority 1989, dated 1990)
